Where two headings read alike, the source gives them in different places.
Experiments:
[1] = molecular target: T1, GPR139 (Homo sapiens, UniProt Q6DWJ6); experiment: GPR139 Agonist titration / agonist counterscreen assay (calcium detection, HEK-GPR139 cells); format: cell-based; design: expressed in transfected cells; host or cells: HEK Aequorin cells, Maxcyte transient transfection; conditions: GPR139 Agonist Activity; for EC50: read-out: EC50; for Averaged Max % Response (±St. Dev.): activity relative to known control
T1 sequence (Q6DWJ6 1-353): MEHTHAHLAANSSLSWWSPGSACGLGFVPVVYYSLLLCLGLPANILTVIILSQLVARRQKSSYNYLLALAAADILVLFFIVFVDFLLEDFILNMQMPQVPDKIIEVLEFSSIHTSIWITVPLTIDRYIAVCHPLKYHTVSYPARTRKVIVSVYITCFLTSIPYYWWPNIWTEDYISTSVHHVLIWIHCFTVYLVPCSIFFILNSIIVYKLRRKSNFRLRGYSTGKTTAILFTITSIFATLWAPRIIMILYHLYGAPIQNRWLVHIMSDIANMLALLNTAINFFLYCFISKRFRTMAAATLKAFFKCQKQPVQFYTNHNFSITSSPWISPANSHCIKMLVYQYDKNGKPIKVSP
Procedure: GPR activity was assessed using a calcium detection assay. […] Negative control samples were treated with DMSO. […] Intracellular calcium was measured using Calcium 5.

[2] = test system: parental HEK cells; experiment: HEK parental Agonist Counterscreen Assay (non-transfected cells); format: cell-based; conditions: for Averaged Max % Response (±St. Dev.): activity relative to known control
Source text: The high control for the agonist counterscreen was Forskolin not acetylcholine.

[3] = Homo sapiens, HEK293, HEK Agonist Activity section of Table 4 (parental HEK counterscreen)
[4] = values printed in E-notation without unit
[5] = Homo sapiens, HEK293, HEK Agonist Activity, parental non-transfected HEK cells
[6] = HEK Agonist Activity section of Table 4 (parental HEK counterscreen)

Structure (SMILES) | Efficiency Ligand [1] | Hill Slope [1] | Lipophilic Efficiency (logD) [1] | Lipophilic Efficiency (logP) [1] | EC50 ([1]; HEK-GPR139 cells) | Averaged Max % Response (±St. Dev.) [1] | Lipophilic Efficiency (logD) ([2]; HEK Agonist Activity section) | Lipophilic Efficiency (logP) ([2]; HEK Agonist Activity section) | Averaged Max % Response (±St. Dev.) ([2]; HEK Agonist Activity section) | EC50 [2, 3] | Lipophilic Efficiency (logD) ([1]; based on logD) | Lipophilic Efficiency (logP) ([1]; based on logP) | Hill Slope ([1]; fitted dose-response curve) | Efficiency Ligand ([1]; ligand efficiency) | EC50 [1, 4] | Lipophilic Efficiency (logD) ([2]; HEK Agonist Activity) | Lipophilic Efficiency (logP) ([2]; HEK Agonist Activity) | Averaged Max % Response (±St. Dev.) ([2]; HEK Agonist Activity) | EC50 [2, 5] | EC50 [2, 6]
O=C(CCc1nc2ccccc2s1)NNC(=O)CSc1ccccc1F [SR-01000069574] | 0.35 | 0.94 | 3.68 | 3.67 | 339 nM | 93.05 ± 4.55% | 2.04 | 2.04 | 7.10 ± 4.83% | > 14500 nM |  |  |  |  |  |  |  |  |  | 
Cc1ccc(C)c(C(=O)CCC(=O)NNC(=O)c2cc(C)oc2C)c1 [SR-01000069642] |  |  |  |  |  | 100.05 ± 4.70% |  |  |  |  | 4.99 | 4.99 | 0.80 | 0.41 | 43.1 nM | 2.45 | 2.45 | 8.55 ± 4.45% | > 14800 nM | 
O=C(CN1C(=O)NC2(CCc3ccccc32)C1=O)Nc1cccc(Cl)c1 (stereo not shown) [SR-01000069699] |  |  |  |  |  | 116.05 ± 3.28% | 2.03 | 2.03 | 12.32 ± 5.16% | > 15200 nM | 4.18 | 4.18 | 0.54 | 0.38 | 108 nM |  |  |  |  | 
COc1cc(C(=O)NNC(=O)CSc2ccc(C)cc2)cc(OC)c1C [SR-01000070170] | 0.34 | 0.96 | 3.40 | 3.40 | 462 nM | 98.34 ± 1.36% | 1.89 | 1.89 | 6.82 ± 9.60% | > 15000 nM |  |  |  |  |  |  |  |  |  | 
Cc1ccccc1SCC(=O)NNC(=O)C1CCCCC1 [SR-01000070173] | 0.42 | 0.62 | 3.30 | 3.30 | 507 nM | 99.23 ± 7.18% | 1.83 | 1.83 | 7.45 ± 6.67% | > 14700 nM |  |  |  |  |  |  |  |  |  | 
Cc1ccc2c(c1)CCCN2CC(=O)N(C)c1c(N)n(Cc2ccccc2)c(=O)[nH]c1=O [SR-01000070509] |  |  |  |  |  | 96.94 ± 14.18% | 2.32 | 2.31 | 15.75 ± 7.96% |  | 4.29 | 4.29 | 0.89 | 0.30 | 153 nM |  |  |  |  | > 14300 nM
Cc1cc(C(=O)CCC(=O)NNC(=O)CSc2nc3ccccc3s2)c(C)s1 [SR-01000070591] |  |  |  |  |  | 126.06 ± 10.32% |  |  |  |  | 4.02 | 4.02 | 0.31 | 0.39 | 13.6 nM | 1.00 | 1.00 | −5.74 ± 0.47% | > 14300 nM | 
O=C(Cn1nnc(-c2ccccc2)n1)NNC(=O)Cn1c(C(F)(F)F)nc2ccccc21 [SR-01000070891] |  |  |  |  |  | 105.87 ± 4.30% |  |  |  |  | 4.97 | 4.93 | 0.88 | 0.35 | 11.9 nM | 1.86 | 1.83 | 8.31 ± 6.92% | > 15200 nM | 
O=C(COc1ccccc1Cl)NNC(=O)CSc1ccc2ccccc2c1 [SR-01000071098] |  |  |  |  |  | 108.04 ± 6.43% |  |  |  |  | 4.08 | 4.08 | 0.77 | 0.39 | 27.4 nM | 1.38 | 1.37 | 24.54 ± 7.58% | > 14100 nM | 
Cc1cccc(Cc2cnc(NC(=O)CC(C)C)s2)c1 [SR-01000071221] |  |  |  |  |  | 129.99 ± 9.49% |  |  |  |  | 2.68 | 2.68 | 1.13 | 0.52 | 39.6 nM | 0.08 | 0.08 | 19.19 ± 7.12% | > 15600 nM | 
CCCCn1c(C)c(N(CC)C(=O)C(C)(C)Oc2ccc(C)cc2)c(=O)[nH]c1=O [SR-01000071222] |  |  |  |  |  | 126.32 ± 18.07% |  |  |  |  | 5.83 | 5.82 |  | 0.42 |  | 2.01 | 2.01 | 4.62 ± 5.04% | > 14700 nM | 
CCOc1ccccc1NC(=O)CN1C(=O)NC(C)(c2ccc(Cl)cc2Cl)C1=O (stereo not shown) [SR-01000072797] | 0.29 | 0.87 | 2.52 | 2.52 | 1000 nM | 94.94 ± 8.96% | 1.39 | 1.39 | 4.41 ± 6.50% |  |  |  |  |  |  |  |  |  |  | > 14200 nM
Cc1ccc(C)c(C(=O)CCC(=O)NNC(=O)CSc2nc3ccccc3o2)c1 [SR-01000073202] |  |  |  |  |  | 119.67 ± 15.04% |  |  |  |  | 4.38 | 4.38 |  | 0.39 | > 6.6 nM | 1.04 | 1.04 | 12.21 ± 5.38% | > 14500 nM | 
Nc1c(Cl)c(Cl)nc(C(=O)OCC(=O)NCc2ccccc2)c1Cl [SR-01000073564] |  |  |  |  |  | 129.62 ± 8.33% | 2.07 | 2.07 | 8.96 ± 14.03% | > 14500 nM | 4.46 | 4.46 | 0.59 | 0.42 | 58.6 nM |  |  |  |  | 
CC1(c2ccc3c(c2)OCO3)NC(=O)N(CC(=O)Nc2ccccc2[N+](=O)[O-])C1=O (stereo not shown) [SR-01000074154] |  |  |  |  |  | 109.38 ± 5.55% | 3.21 | 3.20 | 11.86 ± 8.71% |  | 5.22 | 5.22 | 0.54 | 0.32 | 147 nM |  |  |  |  | > 15000 nM
CC(C)(C)OC(=O)NNC(=O)COCc1ccc(Cl)c(Cl)c1 [SR-01000074687] |  |  |  |  |  | 90.02 ± 17.44% | 1.33 | 1.32 | 17.98 ± 4.87% | > 15400 nM | 3.63 | 3.62 | 0.77 | 0.45 | 77.1 nM |  |  |  |  | 
CC(NC(=O)CN1C(=O)c2cccc([N+](=O)[O-])c2C1=O)c1ccc(Cl)cc1Cl (stereo not shown) [SR-01000074712] |  |  |  |  |  | 109.67 ± 8.84% |  |  |  |  | 4.91 | 4.91 | 0.80 | 0.40 | 9.7 nM | 1.73 | 1.73 | 30.27 ± 2.23% | > 14700 nM | 
CC1(c2ccc3c(c2)OCCO3)NC(=O)C(CC(=O)NCC2CCCCC2)C1=O (stereo not shown) [SR-01000074761] |  |  |  |  |  | 95.96 ± 3.33% | 3.15 | 3.15 | 13.40 ± 6.99% | > 15400 nM | 5.32 | 5.32 | 0.92 | 0.34 | 103 nM |  |  |  |  | 
COc1ccc2c(CC(=O)NNC(=O)c3cc(-c4ccccc4)no3)coc2c1 [SR-01000074979] | 0.31 | 0.80 | 4.03 | 4.03 | 441 nM | 79.45 ± 3.43% | 2.52 | 2.51 | −0.33 ± 8.51% | > 14400 nM |  |  |  |  |  |  |  |  |  | 
